Reference: US9623063B2, “Extracts from Ajuga reptans cell lines, their preparation and use” (I.R.B. ISTITUTO DI RICERCHE BIOTECNOLOGICHE S.r.l., priority 2005, dated 2017)
Converted amounts (≈) assume the structure as drawn. Like-named read-outs stand apart in the source and are kept apart here.

Tests used:
[1] = Peroxynitrite scavenging (SIN-1, PTIO spin trap, ESR); type: biochemical; settings: means of 6 independent assays
Text: (§1) The superoxide anion has been measured by a chemiluminescent assay based on the hypoxanthine (HPX)/xanthine oxidase (XOD) reaction using the Lumimax Superoxide Anion Detection Kit (Stratagene, La Jolla, Calif., USA) and following the manufacturer's instructions. Hydroxyl radical scavenger activity has been measured by means of the Fenton reaction for the production of hydroxyl radicals and chemiluminescent dosage (using a Victor^3 chemiluminometer, Wallac, Finland) with luminol. Peroxynitrite ions have been determined by means of dosage with a spontaneous generator of peroxynitrites (3-morpholinosidnonimine hydrochloride; SIN-1) and a stable reagent for the nitroxyl ions (2-(4-carboxyphenyl)-4,4,5,5-tetramethylimidazoline-1-oxyl-3-oxide potassium salt PTIO spin trap) then dosed by means of electron spin resonance (ESR) using a Nippon Denshi JES-FR30. Lipid peroxidation has been generated using Fe^2+ induced-oxygen reactive species, and detected using thiobarbituric acid in accordance with Buege, J A & Aust, S D: Microsomal lipid peroxidation (Methods Enzymol.
(§2) The results are expressed as the concentration inhibiting 50% of activity (IC50), means of 6 independent assays.

tyrosinase [2] = test: Tyrosinase inhibition, oxidation of L-tyrosine to L-DOPA; type: biochemical; settings: 250 μg/ml
Text: (§3) The enzyme tyrosinase catalyses the reactions leading to melanin biosynthesis from tyrosine. […] Substances inhibiting tyrosinase activity produce a clearing/bleaching effect on the skin, since they block melanin synthesis. The method used to determine the inhibition of tyrosinase activity in the oxidation reaction of L-tyrosine to L-DOPA is that described in Kim et al. […] Biol. Pharm. […] The method applied for determination of the inhibition of tyrosinase activity in the conversion of L-DOPA to DOPAquinone is that described in Masamoto et al. (Mushroom tyrosinase inhibitory activity of esculetin isolated from seeds of Euphorbia lathyris L. Biosci. Biotechnol. Biochem., 67(3), 631-634, 2003).

[3] = Superoxide anion chemiluminescent assay (hypoxanthine/xanthine oxidase, Lumimax kit); type: biochemical; settings: means of 6 independent assays
Text: as §1, §2

tyrosinase [4] = test: Tyrosinase inhibition, conversion of L-DOPA to DOPAquinone; type: biochemical; settings: 100 μg/ml
Text: as §3

whole blood = test: Luminol dependent chemiluminescence of whole blood; type: cell-based, human; settings: 0.5 h, read-out: Whole blood chemiluminescence (IC50 mg/ml)
Procedure: Anti-inflammatory activity has been assessed by measuring luminol dependent chemiluminescence generated by free radicals released from whole blood and from white blood cells. The assay has been performed using the following protocol: 10 μl of fresh human blood is mixed with 0.980 ml of Hanks saline solution containing 5×10^−5 M luminol and the test sample (at various concentrations). The chemiluminescent response is recorded continuously for 30 minutes at a temperature of 37° C. The results are expressed as IC50 (mg/ml), i.e. as the minimum sample concentration inhibiting chemiluminescence by 50% with respect to the control. To isolate white blood cells (WBC) from whole blood one proceeds in the following manner: 1 ml of fresh blood is layered onto a Hipaque gradient (p=1.119) and centrifuged at 250×g for 60 minutes at room temperature. Following centrifugation, the pellet containing the white blood cells is washed twice, using a large volume of cold Hanks saline solution. Finally, the washed WBCs are resuspended in 0.1 ml di HBSS containing foetal calf serum. 10^6 WBC are added to a chemiluminometer cuvette. 10 μl of PMA (final concentration equal to 10 nM) are added to induce the formation of free radicals. The chemiluminescent response is recorded continuously for 30 minutes at a temperature of 37° C. […]

3T3 fibroblasts = test: BSO-induced oxidative death of 3T3 fibroblasts (MTT); type: cell-based, BALB/c mouse; settings: 20 μM; BSO 200 μM, 24 hours
A549 cells (ATCC-CCL185) = test: BSO-induced oxidative stress, ROS by DCF fluorimetry in A549 cells; type: cell-based, human; settings: 20 μM; with BSO; control without BSO = 100
Procedure: 10×10^5 A549 cells (ATCC-CCL185) have been seeded into wells with 3 ml of DMEM/F12K HAM medium (Sigma-Aldrich) with 10% FCS and incubated at 37° C. in a 5% CO2, water vapour saturated atmosphere. After 24 hours the culture medium is replaced by medium supplemented with BSO, which is left in contact with the cells for 20 hours. The medium is once again replaced with medium containing BSO in the presence or absence of the test compound. After 4 hours, quantitative measurement of the ROSs (hydroxyl radicals) is performed by washing the cells with phosphate buffer and then incubating them with 30 μM DCF-DA in buffer solution. At the end of a 15 minute incubation, excess DCF-DA is removed from the cells by washing, prior to measuring the fluorescence emitted.
Antioxidant activity measurements are performed using a (Hitachi F3010) spectrophotometer with excitation at 488 nm and measuring emission at 525 nm, and values are expressed in pmoles, by extrapolation from the calibration curve constructed using known quantities of DCF, and in relation to total cellular protein. Values are thus expressed in % ages with respect to the ROS content of the cells not subjected to treatment with BSO (control) to which are assigned a value of 100.
The Extracts 1 and 2, Teupolioside and Ascorbic Acid were solubilized in phosphate buffer 10 mM at pH 7.4, whereas trolox was solubilized in 0.1% of dimethylsulphoxide and culture medium.

C[C@@H]1O[C@@H](O[C@@H]2[C@@H](O)[C@H](OCCc3ccc(O)c(O)c3)O[C@H](CO)[C@H]2OC(=O)/C=C/c2ccc(O)c(O)c2)[C@H](O[C@@H]2O[C@H](CO)[C@H](O)[C@H](O)[C@H]2O)[C@H](O)[C@H]1O [Teupolioside, teupolioside]
Peroxynitrite radical (IC50) [1]: 1.8 µg/mL
Test L-tyrosine-DOPA inhibitory activity (%) (tyrosinase [2]): 29.6%
Superoxide radical (IC50) [3]: 1 µg/mL
Test LDOPA-DOPAquinone inhibitory activity (%) (tyrosinase [4]): 21%
IC50 (whole blood; fresh human blood, luminol, 30 min, 37° C.): 1.4 mg/mL (≈ 1780 µM)
% survived cells (3T3 fibroblasts): 75.5%
% ROS in picomoles (A549 cells (ATCC-CCL185)): 135 ± 7 %

CC1OC(OC2C(O)C(COC(=O)C=Cc3ccc(O)c(O)c3)OC(OCCc3ccc(O)c(O)c3)C2O)C(OC2OC(CO)C(O)C(O)C2O)C(O)C1O (stereo not shown) [Isoteupolioside, isoteupolioside]
Test L-tyrosine-DOPA inhibitory activity (%) (tyrosinase [2]): 30.9%
Test LDOPA-DOPAquinone inhibitory activity (%) (tyrosinase [4]): 20%
IC50 (whole blood; Homo sapiens): 1.3 mg/mL (≈ 1650 µM)
